Laboratory results as given in patent US20170000129A1, “METHOD FOR TREATING MINERAL SLURRIES WITH A BIOCIDE” (priority 2015, published 2017).

What was measured:
[1] = tested on: bacteria from a contaminated kaolin product; test: Kaolin slurry preservation test, challenge: on day 20 samples inoculated with ~10^5 cfu/ml bacteria from a contaminated kaolin product; format: cell-based
Procedure: (§1) In the comparative testing, dry kaolin was mixed with water to achieve a 65% solid slurry material. This material contained no biocide. The slurry was then split into 200 gram aliquots and dosed with different biocides at different concentration as shown in Tables 1-3. All samples were kept at 50° C. until the end of the testing, which was up to 28 days.
(§2) The protocol for the testing of each sample is as follows: • 1) dosed with a recorded level of biocide; • 2) mixed for 24 hours contact time and plated using standard method agar for bacterial growth; • 3) remixed daily for 1 hour and retested for bacterial growth at Day 3; • 4) remixed daily for 1 hour and retested for bacterial growth at Day 7; • 5) remixed daily for 1 hour and retested for bacterial growth at Day 14; • 6) on day 20, samples were split into two containers: one container was inoculated (or challenged) with ˜10^5 cfu/ml bacteria, the other was left “as treated”, the challenge material was obtained from a contaminated kaolin product and is assumed to be representative of the types of bacteria that are seen in the kaolin industry, and the two sets of samples were prepared for Day 21 testing; • 7) both sets were remixed daily for 1 hour and retested for bacterial growth at Day 21; and • 8) both sets remixed daily for 1 hour and retested for bacterial growth at Day 28.

[2] = tested on: bacterial growth in kaolin slurry; test: Kaolin slurry preservation test: biocide-dosed 65% solids slurry plated on standard method agar, samples as treated; format: cell-based, bacteria; details: for biocide efficacy compared with known biocides: Table 2, up to 28 days
Procedure: as §1
A number of different and known biocides were used in the study and they include glutaraldehyde (glute), 1,2 benzithiazolin-3-one (BIT), tetrahydro-3-5-methyl-2H-1,3,5-thiadizine-2-thione (thione), isothiazoline (ISO), bronopol (BNPD) or orthophenyl phenate (OPP). For shorthand purposes, the study refers to the tradename of the biocide, which is found in the above listing of the biocides. Metam sodium is designated as SMDC and MDTCMA is used without change
as §2
Different contact times were used to see how quickly the bacterial population was effected by the biocide.

## CNC(=S)[S-].[Na+] [42% SMDC, sodium N-methyldithiocarbamate]
[1]; 500 ppm, Table 2
  Log Red, 21 day Challenge: 3
  Log Red, 28 day Challenge: 3
  cfu/mL, 21 day Challenge: 105,000 cfu/mL
  cfu/mL, 28 day Challenge: 16,000 cfu/mL
[1]; 1000 ppm, Table 2
  Log Red, 21 day Challenge: 3
  Log Red, 28 day Challenge: 3
  cfu/mL, 21 day Challenge: 59,000 cfu/mL
  cfu/mL, 28 day Challenge: 16,000 cfu/mL
[1]; 1000 ppm, Table 3
  Log Red, 21 day Challenge: 2
  Log Red, 28 day Challenge: 1
  cfu/mL, 21 day Challenge: 384,000 cfu/mL
  cfu/mL, 28 day Challenge: 3,000,000 cfu/mL
[1]; 1500 ppm, Table 3
  Log Red, 21 day Challenge: 5
  Log Red, 28 day Challenge: 5
  cfu/mL, 21 day Challenge: 100 cfu/mL
  cfu/mL, 28 day Challenge: 100 cfu/mL
[1]; Table 3, challenge testing
  biocide effectiveness in challenge testing: comparable to thione
[1]; after inoculation
  biocide effectiveness after inoculation, overall result of the studies: most effective biocides
[2]; 500 ppm, Table 1
  Log Red, contact time 1 day: 0
  Log Red, contact time 3 day: 1
  Log Red, contact time 7 day: 3
  cfu/mL, contact time 1 day: 24,340,000 cfu/mL
  cfu/mL, contact time 3 day: 2,600,000 cfu/mL
  cfu/mL, contact time 7 day: 30,000 cfu/mL
  performance against the BIT biocide when measuring log reduction: performed at least as well as the BIT biocide
[2]; 500 ppm, Table 2
  Log Red, contact time 1 day: 0
  Log Red, contact time 3 day: 2
  Log Red, contact time 7 day: 4
  Log Red, contact time 14 day: 4
  Log Red, contact time 21 day: 5
  Log Red, contact time 28 day: 4
  cfu/mL, contact time 1 day: 19,630,000 cfu/mL
  cfu/mL, contact time 3 day: 780,002 cfu/mL
  cfu/mL, contact time 7 day: 4,000 cfu/mL
  cfu/mL, contact time 14 day: 3,000 cfu/mL
  cfu/mL, contact time 21 day: 1,800 cfu/mL
  cfu/mL, contact time 28 day: 1,800 cfu/mL
[2]; 1000 ppm, Table 1
  Log Red, contact time 1 day: 0
  Log Red, contact time 3 day: 1
  Log Red, contact time 7 day: 5
  cfu/mL, contact time 1 day: 16,880,000 cfu/mL
  cfu/mL, contact time 3 day: 2,200,000 cfu/mL
  cfu/mL, contact time 7 day: 1,000 cfu/mL
  performance against the BIT biocide when measuring log reduction: far superior
[2]; 1000 ppm, Table 2
  Log Red, contact time 1 day: 0
  Log Red, contact time 3 day: 4
  Log Red, contact time 7 day: 4
  Log Red, contact time 14 day: 4
  Log Red, contact time 21 day: 5
  Log Red, contact time 28 day: 4
  cfu/mL, contact time 1 day: 12,560,000 cfu/mL
  cfu/mL, contact time 3 day: 4,800 cfu/mL
  cfu/mL, contact time 7 day: 2,400 cfu/mL
  cfu/mL, contact time 14 day: 2,600 cfu/mL
  cfu/mL, contact time 21 day: 900 cfu/mL
  cfu/mL, contact time 28 day: 900 cfu/mL
[2]; 1000 ppm, Table 3
  Log Red, contact time 1 day: 3
  Log Red, contact time 3 day: 2
  Log Red, contact time 7 day: 2
  Log Red, contact time 14 day: 3
  Log Red, contact time 21 day: 2
  Log Red, contact time 28 day: 2
  cfu/mL, contact time 1 day: 200 cfu/mL
  cfu/mL, contact time 3 day: 100 cfu/mL
  cfu/mL, contact time 7 day: 100 cfu/mL
  cfu/mL, contact time 14 day: 100 cfu/mL
  cfu/mL, contact time 21 day: 100 cfu/mL
  cfu/mL, contact time 28 day: 100 cfu/mL
[2]; 1500 ppm, Table 3
  Log Red, contact time 1 day: 3
  Log Red, contact time 3 day: 2
  Log Red, contact time 7 day: 2
  Log Red, contact time 14 day: 3
  Log Red, contact time 21 day: 2
  Log Red, contact time 28 day: 2
  cfu/mL, contact time 1 day: 100 cfu/mL
  cfu/mL, contact time 3 day: 100 cfu/mL
  cfu/mL, contact time 7 day: 100 cfu/mL
  cfu/mL, contact time 14 day: 100 cfu/mL
  cfu/mL, contact time 21 day: 100 cfu/mL
  cfu/mL, contact time 28 day: 100 cfu/mL
[2]
  biocide efficacy compared with known biocides: comparable biocide efficacy as compared to known biocides
[2]; Table 3, up to the 28 day testing, not challenge testing, 1000 and 1500 ppm
  biocide effectiveness compared with thione: performed on a par with the thione

## O=CCCCC=O [50% Glute, glutaraldehyde, reference compound]
[1]; 400 ppm, Table 2
  Log Red, 21 day Challenge: 6
  Log Red, 28 day Challenge: 5
  cfu/mL, 21 day Challenge: 100 cfu/mL
  cfu/mL, 28 day Challenge: 100 cfu/mL
[2]; 400 ppm, Table 2
  Log Red, contact time 1 day: 5
  Log Red, contact time 3 day: 5
  Log Red, contact time 7 day: 6
  Log Red, contact time 14 day: 6
  Log Red, contact time 21 day: 6
  Log Red, contact time 28 day: 5
  cfu/mL, contact time 1 day: 100 cfu/mL
  cfu/mL, contact time 3 day: 100 cfu/mL
  cfu/mL, contact time 7 day: 100 cfu/mL
  cfu/mL, contact time 14 day: 100 cfu/mL
  cfu/mL, contact time 21 day: 100 cfu/mL
  cfu/mL, contact time 28 day: 100 cfu/mL
[2]
  biocide efficacy compared with known biocides: best performer
